pIC50: −log10 of the molar value.
Tested on: 138582-337-R-J1-PDC complex spheroid viability
Assay: Anticancer human tumor 138582-337-R-J1-PDC patient-derived Merkel cell tumor cell line growth inhibition
Conditions: for pIC50: curve of first compound; for viability, T/C: stronger effect = lower value; active = viability on the fitted dose curve at most 10% of control; inactive = the rest
Procedure, shortened: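 Multicellular complex spheroids of tumor cells with human endothelial cells (HUVEC) and mesenchymal stem cells; the LSD1 inhibitor iadademstat was combined with standard-of-care or investigational agents. Top concentration at or near clinical Cmax, half-log dilutions; final DMSO ≤0.25%.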
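Also: spheroids exposed to agents for 7 days.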
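For viability, T/C in this document: 100% = DMSO vehicle control viability.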

CC1(C)CCC(CN2CCN(c3ccc(C(=O)NS(=O)(=O)c4ccc(NCC5CCOCC5)c([N+](=O)[O-])c4)c(Oc4cnc5[nH]ccc5c4)c3)CC2)=C(c2ccc(Cl)cc2)C1 + NC1CC1c1ccc(-c2cccc(O)c2)cc1
5.45: pIC50 (second compound 10 µM)
5.40: pIC50 (second compound 0.1 µM)
inactive: viability, T/C (second compound 0.1 µM, first compound 0.0316 µM) 63.8% | viability, T/C (second compound 0.1 µM, first compound 0.1 µM) 55.9% | viability, T/C (second compound 0.1 µM, first compound 0.316 µM) 56.7% | viability, T/C (second compound 0.1 µM, first compound 1 µM) 66.3% | viability, T/C (second compound 0.1 µM, first compound 3.16 µM) 66.6% | viability, T/C (second compound 0.316 µM, first compound 0.0316 µM) 70.8% | viability, T/C (second compound 0.316 µM, first compound 0.1 µM) 63% | viability, T/C (second compound 0.316 µM, first compound 0.316 µM) 59.4% | viability, T/C (second compound 0.316 µM, first compound 1 µM) 67.9% | viability, T/C (second compound 0.316 µM, first compound 3.16 µM) 58.1% | viability, T/C (second compound 1 µM, first compound 0.0316 µM) 69.7% | viability, T/C (second compound 1 µM, first compound 0.1 µM) 64.2% | viability, T/C (second compound 1 µM, first compound 0.316 µM) 78% | viability, T/C (second compound 1 µM, first compound 1 µM) 64% | viability, T/C (second compound 1 µM, first compound 3.16 µM) 63.5% | viability, T/C (second compound 3.16 µM, first compound 0.0316 µM) 62.9% | viability, T/C (second compound 3.16 µM, first compound 0.1 µM) 68.5% | viability, T/C (second compound 3.16 µM, first compound 0.316 µM) 57.9% | viability, T/C (second compound 3.16 µM, first compound 1 µM) 65.3% | viability, T/C (second compound 3.16 µM, first compound 3.16 µM) 51.6% | viability, T/C (second compound 10 µM, first compound 0.0316 µM) 62.3% | viability, T/C (second compound 10 µM, first compound 0.1 µM) 69.8% | viability, T/C (second compound 10 µM, first compound 0.316 µM) 72.9% | viability, T/C (second compound 10 µM, first compound 1 µM) 70.4% | viability, T/C (second compound 10 µM, first compound 3.16 µM) 55.6%
5.49: pIC50 (second compound 3.16 µM)
5.42: pIC50 (second compound 0.316 µM)
active: viability, T/C (second compound 0.1 µM, first compound 10 µM) 2.31% | viability, T/C (second compound 0.316 µM, first compound 10 µM) 2.2% | viability, T/C (second compound 1 µM, first compound 10 µM) 1.33% | viability, T/C (second compound 3.16 µM, first compound 10 µM) 2.03% | viability, T/C (second compound 10 µM, first compound 10 µM) 1.17%
5.39: pIC50 (second compound 1 µM)

CCN(c1cc(-c2ccc(CN3CCOCC3)cc2)cc(C(=O)NCc2c(C)cc(C)[nH]c2=O)c1C)C1CCOCC1 + NC1CC1c1ccc(-c2cccc(O)c2)cc1
< 5.52: pIC50 (second compound 0.1 µM) | pIC50 (second compound 0.316 µM) | pIC50 (second compound 1 µM) | pIC50 (second compound 3.16 µM) | pIC50 (second compound 10 µM)
inactive: viability, T/C (second compound 0.1 µM, first compound 0.00949 µM) 76.8% | viability, T/C (second compound 0.1 µM, first compound 0.03 µM) 69.5% | viability, T/C (second compound 0.1 µM, first compound 0.0949 µM) 53.6% | viability, T/C (second compound 0.1 µM, first compound 0.3 µM) 59.3% | viability, T/C (second compound 0.1 µM, first compound 0.949 µM) 66.9% | viability, T/C (second compound 0.1 µM, first compound 3 µM) 64.6% | viability, T/C (second compound 0.316 µM, first compound 0.00949 µM) 80.8% | viability, T/C (second compound 0.316 µM, first compound 0.03 µM) 81% | viability, T/C (second compound 0.316 µM, first compound 0.0949 µM) 77.9% | viability, T/C (second compound 0.316 µM, first compound 0.3 µM) 66.6% | viability, T/C (second compound 0.316 µM, first compound 0.949 µM) 59% | viability, T/C (second compound 0.316 µM, first compound 3 µM) 67.1% | viability, T/C (second compound 1 µM, first compound 0.00949 µM) 78.3% | viability, T/C (second compound 1 µM, first compound 0.03 µM) 72.7% | viability, T/C (second compound 1 µM, first compound 0.0949 µM) 77.1% | viability, T/C (second compound 1 µM, first compound 0.3 µM) 66.8% | viability, T/C (second compound 1 µM, first compound 0.949 µM) 64.7% | viability, T/C (second compound 1 µM, first compound 3 µM) 60.5% | viability, T/C (second compound 3.16 µM, first compound 0.00949 µM) 75.8% | viability, T/C (second compound 3.16 µM, first compound 0.03 µM) 84.9% | viability, T/C (second compound 3.16 µM, first compound 0.0949 µM) 82% | viability, T/C (second compound 3.16 µM, first compound 0.3 µM) 75.2% | viability, T/C (second compound 3.16 µM, first compound 0.949 µM) 59.4% | viability, T/C (second compound 3.16 µM, first compound 3 µM) 66.9% | viability, T/C (second compound 10 µM, first compound 0.00949 µM) 63.7% | viability, T/C (second compound 10 µM, first compound 0.03 µM) 91.8% | viability, T/C (second compound 10 µM, first compound 0.0949 µM) 74% | viability, T/C (second compound 10 µM, first compound 0.3 µM) 80.3% | viability, T/C (second compound 10 µM, first compound 0.949 µM) 61.4% | viability, T/C (second compound 10 µM, first compound 3 µM) 72.4%
